From patent US11591341B2 (ALIGOS THERAPEUTICS, INC., priority 2019, dated 2023)
Read-outs that look alike come from different tables or passages of the source.

Test system: HBV
Assay: HBV-DNA Antiviral Assay Using HepG2.117 Cells (intracellular HBV DNA by qPCR)
Assay type: cell-based, hepatitis B virus (genotype D)
Procedure: The following assay procedure describes the HBV antiviral assay, using HepG2.117 cells, which carry a stably integrated genotype D HBV genome under the control of a Tet-off promoter, and intracellular HBV DNA quantification as endpoint. Cell viability is assessed in parallel by measuring the intracellular ATP content using ATPlite (Perkin Elmer).
On day 0, HepG2.117 cells (which are maintained in routine cell culture with doxycycline present in the medium at a final concentration of 1 μg/mL) were seeded in 96-well plates (white with clear bottom) at a density of 2.0×10^4 cells/well (0.1 mL/well) in medium without doxycycline to induce pgRNA transcription and subsequent formation of HBV particles. The cells were incubated at 37° C. and 5% CO2.
On day 1, medium was removed from each well, the test articles were diluted in culture medium without doxcycyline and 100 μL was added to cell culture wells (9 concentrations, 4-fold dilution). For each plate, 6 untreated (merely DMSO) wells were included. The final concentration of DMSO in the culture medium was 2%. Each plate was prepared in duplicate (one for HBV DNA extraction, one for ATPlite measurement). The cells were incubated at 37° C. and 5% CO2 for 3 days.
On day 4, cell viability was assessed using ATPlite and cell lysates were prepared for HBV DNA extraction and subsequent quantification by qPCR.
Medium was removed from each well and 100 μL of 0.33% NP-40 in H2O was added to each well. Plates were sealed, incubated at 4° C. for 5 mins, vortexed extensively and centrifuged briefly. Next, 35 μL of lysate was added to 65 μL QuickExtract DNA Extraction Solution (Epicentre) in a PCR plate for each well. PCR plate was incubated at 65° C. for 6 mins, 98° C. for 2 mins and finally cooled to 4° C. HBV DNA was then quantified by qPCR with HBV-specific primers and probes as specified in Table 3 using the Bio-Rad SSOAdvanced Universal Probes Supermix on a CFX96 machine (Bio-Rad). The PCR cycle program consisted of 95° C. for 3 mins, followed by 40 cycles at 95° C. for 10 sec and 60° C. for 30 sec.
A DNA standard was prepared by dilution of an IDT gBlock corresponding to the amplicon with concentrations ranging from 10^2 to 10^8 copies/input (i.e. per 4 μL) and used to generate a standard curve by plotting Cq values vs. HBV DNA standard concentration. The quantity of HBV DNA in each sample was determined by interpolating from the standard curve.
Cell viability was calculated as follows: % Cell viability=(luminescence value of test sample)/(average luminescence value of 2% DMSO control)×100%. HBV DNA inhibition was calculated as follows: 100−(HBV DNA copy number of test sample)/(average HBV DNA copy number of 2% DMSO control)×100%. No normalization to entecavir was required due to the excellent dynamic window of this assay. The CC50, EC50 and EC90 values were determined by dose-response curves fitted by GraphPad Prism using “log (agonist) vs. response—Variable slope”.

## 13-benzyl-4-(4-bromo-3-chloro- benzoyl)-11-methylene-4,7,9,13- tetrazatricyclo[7.5.0.0^2,7]tetradec-1- ene-8.14-dione [Example 109]
HBV DNA inhibition, HepG2.117 cells, intracellular HBV DNA by qPCR (Table 4), read-out: EC50
  EC50: 100 to 500 nM

## C[C@@H](NC(=O)c1c2n(c(=O)n1-c1ccc(OC3CC3)cc1)C[C@H](C)N(C(=O)c1ccc(Br)c(Cl)c1)C2)c1ccccc1F (mixture of isomers) [Example 322, (6SR)-7-(4-bromo-3-chloro-benzoyl)-2-[4-(cyclopropoxy)phenyl]-N-[(1R)-1-(2-fluorophenyl)ethyl]-6-methyl-3-oxo-6,8-dihydro-5H-imidazo[1,5-a]pyrazine-1-carboxamide]
Hepatitis B virus, HepG2.117
  EC50: 100 to 500 nM

## C[C@@H]1Cn2c(c(C(=O)N[C@H](C)c3ccccc3)n(-c3ccc(OC4CC4)cc3)c2=O)CN1C(=O)c1ccc(Br)c(Cl)c1 (mixture of isomers) [Example 331, (6RS)-7-(4-bromo-3-chloro-benzoyl)-2-[4-(cyclopropoxy)phenyl]-6-methyl-3-oxo-N-[(1S)-1-phenylethyl]-6,8-dihydro-5H-imidazo[1,5-a]pyrazine-1-carboxamide]
Hepatitis B virus, HepG2.117
  EC50: 500 to 5000 nM

## C[C@@H](NC(=O)c1c2n(c(=O)n1-c1ccc(OC3CC3)cc1)C[C@H](C)N(C(=O)c1ccc(Br)c(Cl)c1)C2)c1ccccc1 (mixture of isomers) [Example 332, (6SR)-7-(4-bromo-3-chloro-benzoyl)-2-[4-(cyclopropoxy)phenyl]-6-methyl-3-oxo-N-[(1R)-1-phenylethyl]-6,8-dihydro-5H-imidazo[1,5-a]pyrazine-1-carboxamide]
Hepatitis B virus, HepG2.117
  EC50: 100 to 500 nM

## C[C@@H]1Cn2c(c(C(=O)N[C@H](C)c3ccccc3F)n(-c3ccc(OC4CC4)cc3)c2=O)CN1C(=O)c1ccc(Br)c(Cl)c1 (mixture of isomers) [Example 335, (6RS)-7-(4-bromo-3-chloro-benzoyl)-2-[4-(cyclopropoxy)phenyl]-N-[(1S)-1-(2-fluorophenyl)ethyl]-6-methyl-3-oxo-6,8-dihydro-5H-imidazo[1,5-a]pyrazine-1-carboxamide]
Hepatitis B virus, HepG2.117
  EC50: 500 to 5000 nM

## COc1ccc([C@H](C)NC(=O)c2c3n(c(=O)n2-c2ccc(OC4CC4)cc2)C[C@H](C)N(C(=O)c2ccc(Br)c(Cl)c2)C3)cc1 (mixture of isomers) [Example 436, (6SR)-7-(4-bromo-3-chloro-benzoyl)-2-[4-(cyclopropoxy)phenyl]-N-[(1S)-1-(4-methoxyphenyl)ethyl]-6-methyl-3-oxo-6,8-dihydro-5H-imidazo[1,5-a]pyrazine-1-carboxamide]
Hepatitis B virus, HepG2.117
  EC50: < 100 nM

## COc1ccc(-n2c(C(=O)N[C@@H]3CCc4ccccc43)c3n(c2=O)CCN(C(=O)c2ccc(Br)c(Cl)c2)C3)cc1 (racemic) [Example 75, 7-(4-bromo-3-chloro-benzoyl)-2-(4-methoxyphenyl)-3-oxo-N-[rac-(1R)-indan-1-yl]-6,8-dihydro-5H-imidazo[1,5-a]pyrazine-1-carboxamide]
Hepatitis B virus, HepG2.117
  EC50: 500 to 5000 nM

## COc1ccc(-n2c(C(=O)NC(C)C3CC3)c3n(c2=O)CCN(C(=O)c2ccc(Cl)c(Cl)c2)C3)cc1 (racemic) [Example 94, 7-(3,4-dichlorobenzoyl)-2-(4-methoxyphenyl)-3-oxo-N-[rac-(1S)-1-cyclopropylethyl]-6,8-dihydro-5H-imidazo[1,5-a]pyrazine-1-carboxamide]
Hepatitis B virus, HepG2.117
  EC50: > 5000 nM

## COc1ccc(-n2c(C(=O)N[C@H](C)C3CC3)c3n(c2=O)CCN(C(=O)c2ccc(Cl)c(Cl)c2)C3)cc1 (racemic) [Example 95, 7-(3,4-dichlorobenzoyl)-2-(4-methoxyphenyl)-3-oxo-N-[rac-(1R)-1-cyclopropylethyl]-6,8-dihydro-5H-imidazo[1,5-a]pyrazine-1-carboxamide]
Hepatitis B virus, HepG2.117
  EC50: > 5000 nM

## CC(C)Oc1ccc(-n2c(C(=O)NC(C)c3ccccc3)c3n(c2=O)CCN(C(=O)c2ccc(Br)c(Cl)c2)C3)cc1 (racemic) [Example 118, 7-(4-bromo-3-chloro-benzoyl)-2-(4-isopropoxyphenyl)-3-oxo-N-[rac-(1R)-1-phenylethyl]-6,8-dihydro-5H-imidazo[1,5-a]pyrazine-1-carboxamide]
Hepatitis B virus, HepG2.117
  EC50: 100 to 500 nM

## CC(C)Oc1ccc(-n2c(C(=O)N[C@@H](C)c3ccccc3)c3n(c2=O)CCN(C(=O)c2ccc(Br)c(Cl)c2)C3)cc1 (racemic) [Example 119, 7-(4-bromo-3-chloro-benzoyl)-2-(4-isopropoxyphenyl)-3-oxo-N-[rac-(1S)-1-phenylethyl]-6,8-dihydro-5H-imidazo[1,5-a]pyrazine-1-carboxamide]
Hepatitis B virus, HepG2.117
  EC50: 100 to 500 nM

## COc1ccc(-n2c(C(=O)N[C@@H](CO)c3ccccc3)c3n(c2=O)CCN(C(=O)c2ccc(Br)c(Cl)c2)C3)cc1 (racemic) [Example 144, 7-(4-bromo-3-chloro-benzoyl)-2-(4-methoxyphenyl)-3-oxo-N-[rac-(1R)-2-hydroxy-1-phenyl-ethyl]-6,8-dihydro-5H-imidazo[1,5-a]pyrazine-1-carboxamide]
Hepatitis B virus, HepG2.117
  EC50: 500 to 5000 nM

## COc1ccc(-n2c(C(=O)N[C@H](C)c3ccc(Br)cc3)c3n(c2=O)CCN(C(=O)c2ccc(Br)c(Cl)c2)C3)cc1 (racemic) [Example 145, 7-(4-bromo-3-chloro-benzoyl)-2-(4-methoxyphenyl)-3-oxo-N-[rac-(1R)-1-(4-bromophenyl)ethyl]-6,8-dihydro-5H-imidazo[1,5-a]pyrazine-1-carboxamide]
Hepatitis B virus, HepG2.117
  EC50: 100 to 500 nM

## COc1ccc(-n2c(C(=O)N[C@@H](c3ccccc3)C3CC3)c3n(c2=O)CCN(C(=O)c2ccc(Br)c(Cl)c2)C3)cc1 (racemic) [Example 149, 7-(4-bromo-3-chloro-benzoyl)-2-(4-methoxyphenyl)-3-oxo-N-[rac-(R)-cyclopropyl(phenyl)methyl]-6,8-dihydro-5H-imidazo[1,5-a]pyrazine-1-carboxamide]
Hepatitis B virus, HepG2.117
  EC50: 500 to 5000 nM

## COc1ccc(-n2c(C(=O)NC(c3ccccc3)C(C)C)c3n(c2=O)CCN(C(=O)c2ccc(Br)c(Cl)c2)C3)cc1 (racemic) [Example 160, 7-(4-bromo-3-chloro-benzoyl)-2-(4-methoxyphenyl)-3-oxo-N-[rac-(1S)-2-methyl-1-phenyl-propyl]-6,8-dihydro-5H-imidazo[1,5-a]pyrazine-1-carboxamide]
Hepatitis B virus, HepG2.117
  EC50: 500 to 5000 nM

## C[C@H](NC(=O)c1c2n(c(=O)n1-c1ccc(OC3CC3)cc1)CCN(C(=O)c1ccc(Br)c(Cl)c1)C2)c1ccccc1 (racemic) [Example 168, 7-(4-bromo-3-chloro-benzoy)-2-[4-(cyclopropoxy)phenyl]-3-oxo-N-[rac-(1S)-1-phenylethyl]-6,8-dihydro-5H-imidazo[1,5-a]pyrazine-1-carboxamide]
Hepatitis B virus, HepG2.117
  EC50: 100 to 500 nM

## COc1ccc(-n2c(C(=O)NC(c3ccccc3)C3CC3)c3n(c2=O)CCN(C(=O)c2ccc(Br)c(Cl)c2)C3)cc1 (racemic) [Example 176, 7-(4-bromo-3-chloro-benzoyl)-2-(4-methoxyphenyl)-3-oxo-N-[rac-(S)-cyclopropyl(phenyl)methyl]-6,8-dihydro-5H-imidazo[1,5-a]pyrazine-1-carboxamide]
Hepatitis B virus, HepG2.117
  EC50: 100 to 500 nM

## COc1ccc(-n2c(C(=O)N[C@@H](c3ccccc3)C(C)C)c3n(c2=O)CCN(C(=O)c2ccc(Br)c(Cl)c2)C3)cc1 (racemic) [Example 178, 7-(4-bromo-3-chloro-benzoyl)-2-(4-methoxyphenyl)-3-oxo-N-[rac-(1R)-2-methyl-1-phenyl-propyl]-6,8-dihydro-5H-imidazo[1,5-a]pyrazine-1-carboxamide]
Hepatitis B virus, HepG2.117
  EC50: 500 to 5000 nM
